According to patent publication US9375426B2, “Method of screening anti-plasmodial activity of acriflavin and acriflavin as an anti-malarial agent” (priority 2012, dated 2016):

Columns and labels:
[1] = test system: malaria parasite in vitro; test: Anti-malarial property of Acriflavin vs Proflavin in vitro (parasitemia at end of first life cycle); format: cell-based, Plasmodium falciparum; settings: 100 nM and 250 nM drug concentrations
Protocol: FIG. 1: Effect of Acriflavin on in vitro growth of 3D7 and W2 strains. Synchronized chloroquine susceptible 3D7 (A) and Chloroquine resistant W2 (B) parasites at ring stage (˜16-20 hrs) were treated with 20 nM to 100 nM of Acriflavin and parasitemia were counted at different time points (post-treatment) as indicated. (C) In each case, parasitemia were determined at the end of the first life cycle and plotted against different concentrations of Acriflavin/Proflavin. Each point/column represents the parasitemia of the mean of triplicates with standard deviations. […] Parasite growth inhibition was assessed by microscopy of giemsa stained smear at different time points as indicated.
Acriflavin is a mixture of 3,6-diamino-10-methylacridinium chloride (Trypflavin) and 3,6-diaminoacridine (Proflavin). […] After the Acriflavin treatment, the parasitemia was calculated in each case. Further, the anti-malarial property of Acriflavin vs Proflavin was also evaluated.
To determine the antimalarial activity of Acriflavin in vitro, synchronised ring stage, Chloroquine sensitive (3D7) and Chloroquine resistant (W2) P. falciparum (˜2.5% parasitemia) parasites were incubated with a range of Acriflavin concentrations (0-100 nM). After 40 hours of the Acriflavin treatment, the parasitemia was calculated in each case. […]

Plasmodium berghei = test system: Plasmodium berghei
Protocol: FIG. 2: In vivo measurement of parasite killing ability of Acriflavin.
This is further described hereinafter as Example 3.
The mice were divided into three groups (each group had 4 mice). For four consecutive days, group I was injected subcutaneously with 5 mg Acriflavin/kg body weight; group II received 5 mg Chloroquine/kg body weight and the group III received no drug and served as control in this experiment. Every alternate day the parasitemia from the tail blood was calculated. […] The mouse groups were kept under observation for 3 weeks after the drug treatment.

Molecule: Nc1ccc2cc3ccc(N)cc3nc2c1 [Proflavin, 3,6-diaminoacridine]
- anti-malarial property against malaria parasite in vitro [1]: ineffective

Molecule: mixture of 3,6-diamino-10-methylacridinium chloride (Trypflavin) and 3,6-diaminoacridine (Proflavin) [Acriflavin]
- drug-related effects on body weight or general condition of animals (Plasmodium berghei; mouse, in vivo): No drug-related effects

Molecule: CCN(CC)CCCC(C)Nc1ccnc2cc(Cl)ccc12 (stereo not shown) [Chloroquine]
- parasitemia at the end of day 6 (Plasmodium berghei; 5 mg/kg body weight subcutaneously, four consecutive days, tail blood, untreated control 16%): 0.33%
- survivability rate (Plasmodium berghei; 5 mg/kg s.c. for four days, 3 weeks observation after treatment, untreated control 25%): 75%
